{"source": "patent US20070148220A1", "about": "“Liposomes and liposomal compositions for vaccination and drug delivery” (priority 2003, published 2007)", "key": {"[1]": {"system": "B16.F1 and TRP-2 pulsed EL4", "test": "CTL cytotoxicity against TRP-2 presenting cells after immunization", "assay_type": "in vivo, mouse", "conditions": "free versus liposomal", "method": "In another set of experiments antigen-specificity of cytotoxic T lymphocytes after liposomal vaccination (FIG. 20) was analyzed. Mice were immunized with AVE3-encapsulated or free TRP-2 and CpG-PTO as described above. Cells prepared from lymph nodes were then tested for cytotoxicity using as targets the mouse melanoma cell line B16.F1 know to present TRP-2 in the context of H-2K^b, TRP-2 pulsed EL4 cells, OVA peptide-pulsed EL4 cells, unpulsed EL4 cells, and YAC-1 cells to exclude a potential NK cell activity. […] As described above 10-fold higher amounts of free TRP-2 and 4-fold higher amounts of CpG-PTO were necessary to induce the same CTL response."}, "[2]": {"system": "TRP-2-specific T cells (splenocytes)", "test": "Avidity of TRP-2-specific T cells (splenocyte proliferation, ATPlite)", "assay_type": "in vivo, BL6 mice", "conditions": "after two immunizations", "method": "FIG. 22: Vaccination with liposomal-encapsulated TRP-2 plus CpG-PTO. The vaccination with liposomal-encapsulated TRP-2 plus CpG-PTO generates high avidity T cells. BL6 mice were vaccinated with 10 μg liposomal or 100 μg free TRP-2 plus 5 nmol free CpG ODN at weekly intervals up to three times. Lymphocytes were isolated from spleen (A) and lymph node (LN) (B) one week after last immunization and an IFNγ capture assay was performed as described. C, Avidity of T cells after vaccination with liposomal and free TRP-2 plus CpG ODN. One week after the last immunization splenocytes were nylon-wool enriched and cultured for 5 days in vitro in the presence of high dose (10^−6 mol/l) or low dose TRP-2 (10^−9 mol/l) or control peptide […] (10^−6 mol/l) with low dose IL2 (30 U/ml). Proliferation was estimated by a luminescence assay-based detection system measuring ATP content. Proliferation of splenocytes in the presence of anti-TCR plus anti-CD28 mAb was set to 100%. Representative data from one of two similar experiments are shown.\nFinally, the avidity of TRP-2-specific CTLs in animals immunized with liposomal or free TRP-2, respectively (FIG. 21) was compared. […] In parallel to the IFNγ secretion assay nylon-wool column enriched splenocytes were cultured with high (10^−6 mol/l) and low dose TRP-2 (10^−9 mol/l), for 5 days and cell proliferation was determined using the ATPlite™-M system. […]"}, "murine B cells": {"system": "murine B cells", "test": "Induction of B cell proliferation (CFSE)", "assay_type": "cell-based", "conditions": "ODN 5 to 200 nmol/l, free or AVE3-encapsulated", "text": "FIG. 12: Comparison of the biological activity of CpG-PTO and CpG-PDO. Cells were labeled with CFSE before being stimulated for 48 hrs with 0 to 0.2 μmol/l end concentration of ODNs in saline or liposomal. (black diamonds) CpG-PTO in saline; (grey diamonds) CpG-PDO in saline; (black squares) liposomal CpG-PTO; (grey squares) liposomal CpG-PDO. Dead cells were excluded by propidium iodide staining.\nCpG oligonucleotides have been described to induce B cell proliferation. The effects of free or encapsulated CpG phosphorothioate oligonucleotides (CpG-PTO) (see example 6) on proliferation of murine B cells (FIG. 11A) were compared. […] Induction of B cell proliferation was dependent on the concentration of applied ODN with strong B cell proliferation observed between 50 to 200 nmol/l encapsulated ODN. Similar values were obtained for CpG-ODN encapsulated at different concentrations (between 4.6 μg/μmol lipid to 93.5 μg/μmol lipid). No induction of B cell proliferation was observed using free or encapsulated non-CpG-ODN (FIG. 11B).\nCpG phosphorothioate (CpG-PTO) or CpG phosphodiester (CpG-PDO) oligonucleotides (see example 6) were analyzed for the induction of B cell proliferation in free or AVE3-encapsulated form using ODN concentrations between 5 to 200 nmol/l. […]"}}}
{"substance": "free TRP-2: antigenic peptide TRP-2 (SVYDFFVWL), not encapsulated", "values": [{"measurement": "higher amounts necessary to induce the same CTL response", "setting": "[1]", "result": 10, "unit": "fold"}, {"measurement": "avidity of T cells, liposomal vs. free TRP-2", "setting": "[2]", "result": "more polyclonal response of splenocytes consisting of low and high avidity T cells"}]}
{"substance": "non-CpG-ODN: non-CpG-1982-PTO, 5′-TCCAGGACTTCTCTCAGGT-3′, free (DNA, all phosphorothioate, methylation of C not given here)", "values": [{"measurement": "induction of B cell proliferation", "setting": "murine B cells", "result": "No induction"}]}
